Where “and” joins values, the source holds several entries; their conditions need not be identical. Equal values may be shown once. Inconclusive results and toxic doses are left out. The calls were made as follows: active = survival T/C of 150% or more; inactive = T/C below 125% in these data. Numbered stars: 1 amine (or outer) side, 2 acyl side, 3 side chain; on linkers, the order of the positions; unused ones are H or OH. Square brackets hold non-standard residues; d marks the D form. Peptide text beside a SMILES is read from it. * marks the point of attachment. ξ: configuration not given here. X4 = CCC(=O)CC(O)CC(C)CC(N[*:1])C(=O)[*:2]; ξLeu(3ξ-OH) = CC(C)C(O)C(N)C(=O)O; ξPro(4ξ-Me) = CC1CNC(C(=O)O)C1; X3 = CCC(C)/C=C/C(=O)*; Aib = CC(C)(N)C(=O)O; X5 = CC(CN(C)C)N*; βAla = NCCC(=O)O
System: P388 leukemia ip, CD2F1 mice, survival T/C
Assay: NCI In Vivo Anticancer Drug Screen. Data for tumor model P388 Leukemia (intraperitoneal) in CD2F1 (CDF1) mice
Conditions: endpoint: median survival time, higher = longer survival
Procedure, shortened: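 Mice carrying the transplanted tumor received test compound or vehicle. Survival was recorded in each group, and the value is the treated-group measurement divided by that of the vehicle-treated control group.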

[1] = dose: 50.0 mg/kg/injection, schedule: Q01DX005 (ip), vehicle: saline with Tween-80
[2] = dose: 100.0 mg/kg/injection, schedule: Q01DX005 (ip), vehicle: saline with Tween-80
[3] = dose: 200.0 mg/kg/injection, schedule: Q01DX005 (ip), vehicle: saline with Tween-80
[4] = dose: 25.0 mg/kg/injection, schedule: Q01DX009 (ip), vehicle: saline with Tween-80
[5] = dose: 50.0 mg/kg/injection, schedule: Q01DX009 (ip), vehicle: saline with Tween-80
[6] = dose: 100.0 mg/kg/injection, schedule: Q01DX009 (ip), vehicle: saline with Tween-80
[7] = dose: 60.0 mg/kg/injection, schedule: Q01DX005 (ip), vehicle: saline with Tween-80
[8] = dose: 120.0 mg/kg/injection, schedule: Q01DX005 (ip), vehicle: saline with Tween-80
[9] = dose: 240.0 mg/kg/injection, schedule: Q01DX005 (ip), vehicle: saline with Tween-80
[10] = dose: 12.5 mg/kg/injection, schedule: Q01DX009 (ip), vehicle: saline
[11] = dose: 50.0 mg/kg/injection, schedule: Q01DX009 (ip), vehicle: saline
[12] = dose: 100.0 mg/kg/injection, schedule: Q01DX009 (ip), vehicle: saline
[13] = dose: 100.0 mg/kg/injection, schedule: Q04DX003 (ip), vehicle: saline

Measured: T/C

c1ccc(C(Sc2c[nH]c3ccccc23)(c2ccccc2)c2ccccc2)cc1 (tested in a mixture with another compound)
inactive: dose: 100.0 mg/kg/injection, schedule: Q01DX001 (ip), vehicle: saline with Tween-80 100 % of control | dose: 200.0 mg/kg/injection, schedule: Q01DX001 (ip), vehicle: saline with Tween-80 90 % of control | dose: 400.0 mg/kg/injection, schedule: Q01DX001 (ip), vehicle: saline with Tween-80 92 % of control

CN(C)CCCNC(=O)NCCCCCCNC(=O)NCCCN(C)C
inactive: [1] 93 % of control | [2] 86 % of control

CC(C)C(NC(=O)C(CCCCN)N(C(=O)OCc1ccccc1)C(=O)OCc1ccccc1)C(=O)O (stereo unspecified)
inactive: [1] 100 % of control | [2] 93 % of control | [3] 92 % of control

O=C(Nc1ccc(NC(=O)C(Cl)(Cl)Cl)cc1)C(Cl)(Cl)Cl
inactive: [4] 105 % of control | [5] 91 % of control | [6] 92 % of control | dose: 200.0 mg/kg/injection, schedule: Q01DX009 (ip), vehicle: saline with Tween-80 99 % of control

CCSc1nc(N)c(Br)c(Sc2nc(N)nc3nc[nH]c23)n1
inactive: [1] 103 % of control | [2] 101 % of control | [3] 97 % of control

CCNC(=O)c1nnn2c1nc(N)c1cc(Cl)ccc12
inactive: dose: 12.5 mg/kg/injection, schedule: Q01DX005 (ip), vehicle: Klucel (hydroxypropylcellulose) (HPC) 96 % of control | dose: 25.0 mg/kg/injection, schedule: Q01DX005 (ip), vehicle: Klucel (hydroxypropylcellulose) (HPC) 96 % of control | dose: 50.0 mg/kg/injection, schedule: Q01DX005 (ip), vehicle: Klucel (hydroxypropylcellulose) (HPC) 95 % of control | dose: 100.0 mg/kg/injection, schedule: Q01DX005 (ip), vehicle: Klucel (hydroxypropylcellulose) (HPC) 94 % of control | dose: 200.0 mg/kg/injection, schedule: Q01DX005 (ip), vehicle: Klucel (hydroxypropylcellulose) (HPC) 88 % of control

O=S(=O)(/N=C1C=C/C(=N\S(=O)(=O)c2ccccc2)C2C/1C2(c1ccccc1)c1ccccc1)c1ccccc1 (stereo unspecified)
inactive: dose: 50.0 mg/kg/injection, schedule: Q01DX001 (ip), vehicle: Klucel (hydroxypropylcellulose) (HPC) 98 % of control | dose: 100.0 mg/kg/injection, schedule: Q01DX001 (ip), vehicle: Klucel (hydroxypropylcellulose) (HPC) 97 % of control | dose: 200.0 mg/kg/injection, schedule: Q01DX001 (ip), vehicle: Klucel (hydroxypropylcellulose) (HPC) 99 % of control

Cc1cc(C)cc(C(=O)NC(c2ccncc2)C2N=C(c3ccccc3)OC2=O)c1 (stereo unspecified)
inactive: [7] 98 % of control | [8] 94 % of control | [9] 94 % of control

c1cc(-n2nnc3cnccc32)ccn1
inactive: dose: 3.12 mg/kg/injection, schedule: Q01DX009 (ip), vehicle: saline 91 % of control | dose: 6.25 mg/kg/injection, schedule: Q01DX009 (ip), vehicle: saline 100 % of control | dose: 6.25 mg/kg/injection, schedule: Q04DX003 (ip), vehicle: saline 109 % of control | [10] 98 % of control | dose: 12.5 mg/kg/injection, schedule: Q04DX003 (ip), vehicle: saline 104 % of control | dose: 25.0 mg/kg/injection, schedule: Q01DX009 (ip), vehicle: suspension in saline 109 % of control | dose: 25.0 mg/kg/injection, schedule: Q04DX003 (ip), vehicle: saline 100 % of control

CC1CN1P(=O)(OCCCl)N1CC1C (stereo unspecified)
inactive: dose: 44.0 mg/kg/injection, schedule: Q04DX003 (ip), vehicle: saline 113 % of control | [11] 120 % of control | dose: 66.0 mg/kg/injection, schedule: Q04DX003 (ip), vehicle: saline 113 % of control | [12] 120 % of control | [13] 118 % of control | dose: 150.0 mg/kg/injection, schedule: Q04DX003 (ip), vehicle: saline 86 % of control

CONc1ccn(C2OC(CO)C(O)C2O)c(=O)n1 (stereo unspecified)
inactive: [10] 101 % of control and 104 % of control | dose: 25.0 mg/kg/injection, schedule: Q01DX009 (ip), vehicle: saline 112 % of control and 117 % of control | [11] 99 % of control and 113 % of control | [12] 112 % of control

CN1CCN(Cc2ncc(C3CCCCC3)c(=O)[nH]2)CC1
inactive: [4] 100 % of control | [5] 102 % of control | [6] 97 % of control

N#Cc1c(N2CCOCC2)c(-c2ccccc2)c(N2CCOCC2)n2c1nc1ccccc12
inactive: [7] 90 % of control | [8] 96 % of control | [9] 87 % of control

COC(=O)c1ccnc(-c2cc(C(=O)OC)ccn2)c1
inactive: [11] 99 % of control | [12] 93 % of control | dose: 200.0 mg/kg/injection, schedule: Q01DX009 (ip), vehicle: saline 92 % of control

CCC(=O)CC(O)CC(C)CC(NC(=O)C1CC(C)CN1C(=O)/C=C/C(C)CC)C(=O)NC(C(=O)NC(C)(C)C(=O)NC(CC(C)C)C(=O)NC(CC(C)C)C(=O)NC(C)(C)C(=O)NC(C)(C)C(=O)NCCC(=O)NC(C)CN(C)C)C(O)C(C)C (stereo unspecified) (X3-[ξPro(4ξ-Me)][X4][ξLeu(3ξ-OH)][Aib]LL[Aib][Aib][βAla]-X5; configuration not given here)
inactive: dose: 50.0 micrograms/kg/injection, schedule: Q01DX005 (ip), vehicle: saline + alcohol 101 % of control | dose: 100.0 micrograms/kg/injection, schedule: Q01DX005 (ip), vehicle: saline + alcohol 101 % of control | dose: 200.0 micrograms/kg/injection, schedule: Q01DX005 (ip), vehicle: saline + alcohol 101 % of control | dose: 400.0 micrograms/kg/injection, schedule: Q01DX005 (ip), vehicle: saline + alcohol 111 % of control | dose: 800.0 micrograms/kg/injection, schedule: Q01DX005 (ip), vehicle: saline + alcohol 110 % of control

N#Cc1c(-c2ccccc2)c(-c2ccccc2)nn(CC(=O)O)c1=O
inactive: dose: 12.5 mg/kg/injection, schedule: Q01DX005 (ip), vehicle: sodium bicarbonate 102 % of control | dose: 25.0 mg/kg/injection, schedule: Q01DX005 (ip), vehicle: sodium bicarbonate 100 % of control | dose: 25.0 mg/kg/injection, schedule: Q04DX002 (ip), vehicle: distilled water + Tween-80 101 % of control | dose: 50.0 mg/kg/injection, schedule: Q01DX005 (ip), vehicle: sodium bicarbonate 101 % of control | dose: 50.0 mg/kg/injection, schedule: Q04DX002 (ip), vehicle: distilled water + Tween-80 100 % of control | dose: 100.0 mg/kg/injection, schedule: Q01DX005 (ip), vehicle: sodium bicarbonate 102 % of control | dose: 100.0 mg/kg/injection, schedule: Q04DX002 (ip), vehicle: distilled water + Tween-80 101 % of control | dose: 200.0 mg/kg/injection, schedule: Q01DX005 (ip), vehicle: sodium bicarbonate 92 % of control | dose: 200.0 mg/kg/injection, schedule: Q04DX002 (ip), vehicle: distilled water + Tween-80 99 % of control

CSc1cc(C)c(O)c(CO)c1
inactive: dose: 100.0 mg/kg/injection, schedule: Q04DX003 (ip), vehicle: other 104 % of control | dose: 200.0 mg/kg/injection, schedule: Q04DX003 (ip), vehicle: other 100 % of control | dose: 400.0 mg/kg/injection, schedule: Q04DX003 (ip), vehicle: other 100 % of control

O=C(O)c1cc(OCc2ccccc2)cc(OCc2ccccc2)c1
inactive: [7] 96 % of control | [8] 102 % of control | [9] 106 % of control

COc1cccc2c1C(=O)c1c(O)c3c(c(O)c1C2=O)C[C@@](O)(C(C)=O)C[C@@H]3OC1CC(N)C(OC2CC(N)C(OC)C(C)O2)C(C)O1 (stereo partly specified)
inactive: dose: 3.13 mg/kg/injection, schedule: Q04DX003 (ip), vehicle: water 110 % of control and 115 % of control | dose: 6.25 mg/kg/injection, schedule: Q04DX003 (ip), vehicle: water 119 % of control and 123 % of control | dose: 50.0 mg/kg/injection, schedule: Q04DX003 (ip), vehicle: water 112 % of control

Nc1nc2c(c(=O)[nH]1)[N+]1=CN(c3ccc(C(=O)NC(CCC(=O)O)C(=O)O)cc3)CC1CC2 (stereo unspecified)
inactive: dose: 50.0 mg/kg/injection, schedule: Q01DX001 (ip), vehicle: saline 96 % of control | dose: 50.0 mg/kg/injection, schedule: Q04DX003 (ip), vehicle: saline 97 % of control | dose: 100.0 mg/kg/injection, schedule: Q01DX001 (ip), vehicle: saline 94 % of control | [13] 100 % of control | dose: 200.0 mg/kg/injection, schedule: Q01DX001 (ip), vehicle: saline 94 % of control | dose: 200.0 mg/kg/injection, schedule: Q04DX003 (ip), vehicle: saline 96 % of control

— PubChem BioAssay AID330 (DTP/NCI, 2004)
